Columns and labels:
[1] = biological target: Non-receptor tyrosine-protein kinase TYK2 (Homo sapiens, UniProt P29597); assay: Inhibition of GST-tagged TYK2 assessed as inhibition of biotinylated IRS1 substrate phosphorylation after 60 mins by caliper mobility shift assay
[2] = Antiproliferative activity against human SET2 cells harboring JAK2 V617F mutant after 72 hrs by […]; assay type: functional; settings: SET-2, 72 h
[3] = biological target: T1, Tyrosine-protein kinase JAK3 (Homo sapiens, UniProt P52333); assay: Inhibition of GST-tagged JAK3 assessed as inhibition of biotinylated JAK3tide peptide phosphorylation after 60 mins by caliper mobility shift assay
T1 sequence (P52333 whole entry): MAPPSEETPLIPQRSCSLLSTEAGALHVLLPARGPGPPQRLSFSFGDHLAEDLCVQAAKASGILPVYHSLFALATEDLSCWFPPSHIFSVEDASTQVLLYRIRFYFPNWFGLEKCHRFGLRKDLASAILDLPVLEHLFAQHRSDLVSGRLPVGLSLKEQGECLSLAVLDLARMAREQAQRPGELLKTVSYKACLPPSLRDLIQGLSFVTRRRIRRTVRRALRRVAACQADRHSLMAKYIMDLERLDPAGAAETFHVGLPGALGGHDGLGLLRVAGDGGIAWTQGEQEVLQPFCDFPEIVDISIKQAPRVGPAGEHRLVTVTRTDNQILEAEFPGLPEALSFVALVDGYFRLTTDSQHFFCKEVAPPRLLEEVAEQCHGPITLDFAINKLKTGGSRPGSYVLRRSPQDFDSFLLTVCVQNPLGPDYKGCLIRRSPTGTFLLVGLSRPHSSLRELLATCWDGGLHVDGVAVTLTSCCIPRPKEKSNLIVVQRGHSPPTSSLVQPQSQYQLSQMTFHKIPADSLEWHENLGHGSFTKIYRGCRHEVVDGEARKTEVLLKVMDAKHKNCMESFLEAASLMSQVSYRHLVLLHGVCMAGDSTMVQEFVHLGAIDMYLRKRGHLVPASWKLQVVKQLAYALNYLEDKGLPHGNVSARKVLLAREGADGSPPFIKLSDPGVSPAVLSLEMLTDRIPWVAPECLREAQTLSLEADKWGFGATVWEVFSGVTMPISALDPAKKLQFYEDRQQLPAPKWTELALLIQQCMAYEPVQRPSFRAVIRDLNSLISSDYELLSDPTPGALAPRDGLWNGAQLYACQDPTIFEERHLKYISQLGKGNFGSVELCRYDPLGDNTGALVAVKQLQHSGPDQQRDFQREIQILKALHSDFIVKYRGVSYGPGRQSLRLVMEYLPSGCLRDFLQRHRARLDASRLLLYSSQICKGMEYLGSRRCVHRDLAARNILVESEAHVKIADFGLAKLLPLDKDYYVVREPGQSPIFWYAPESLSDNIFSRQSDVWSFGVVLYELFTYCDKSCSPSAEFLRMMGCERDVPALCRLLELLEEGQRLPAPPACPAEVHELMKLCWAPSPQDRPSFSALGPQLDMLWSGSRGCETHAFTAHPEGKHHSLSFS

[4] = biological target: Tyrosine-protein kinase JAK1 (Homo sapiens, UniProt P23458); assay: Inhibition of GST-tagged JAK1 assessed as inhibition of biotinylated IRS1 substrate phosphorylation after 60 mins by caliper mobility shift assay
Sequence of Tyrosine-protein kinase JAK1 (P23458 whole entry): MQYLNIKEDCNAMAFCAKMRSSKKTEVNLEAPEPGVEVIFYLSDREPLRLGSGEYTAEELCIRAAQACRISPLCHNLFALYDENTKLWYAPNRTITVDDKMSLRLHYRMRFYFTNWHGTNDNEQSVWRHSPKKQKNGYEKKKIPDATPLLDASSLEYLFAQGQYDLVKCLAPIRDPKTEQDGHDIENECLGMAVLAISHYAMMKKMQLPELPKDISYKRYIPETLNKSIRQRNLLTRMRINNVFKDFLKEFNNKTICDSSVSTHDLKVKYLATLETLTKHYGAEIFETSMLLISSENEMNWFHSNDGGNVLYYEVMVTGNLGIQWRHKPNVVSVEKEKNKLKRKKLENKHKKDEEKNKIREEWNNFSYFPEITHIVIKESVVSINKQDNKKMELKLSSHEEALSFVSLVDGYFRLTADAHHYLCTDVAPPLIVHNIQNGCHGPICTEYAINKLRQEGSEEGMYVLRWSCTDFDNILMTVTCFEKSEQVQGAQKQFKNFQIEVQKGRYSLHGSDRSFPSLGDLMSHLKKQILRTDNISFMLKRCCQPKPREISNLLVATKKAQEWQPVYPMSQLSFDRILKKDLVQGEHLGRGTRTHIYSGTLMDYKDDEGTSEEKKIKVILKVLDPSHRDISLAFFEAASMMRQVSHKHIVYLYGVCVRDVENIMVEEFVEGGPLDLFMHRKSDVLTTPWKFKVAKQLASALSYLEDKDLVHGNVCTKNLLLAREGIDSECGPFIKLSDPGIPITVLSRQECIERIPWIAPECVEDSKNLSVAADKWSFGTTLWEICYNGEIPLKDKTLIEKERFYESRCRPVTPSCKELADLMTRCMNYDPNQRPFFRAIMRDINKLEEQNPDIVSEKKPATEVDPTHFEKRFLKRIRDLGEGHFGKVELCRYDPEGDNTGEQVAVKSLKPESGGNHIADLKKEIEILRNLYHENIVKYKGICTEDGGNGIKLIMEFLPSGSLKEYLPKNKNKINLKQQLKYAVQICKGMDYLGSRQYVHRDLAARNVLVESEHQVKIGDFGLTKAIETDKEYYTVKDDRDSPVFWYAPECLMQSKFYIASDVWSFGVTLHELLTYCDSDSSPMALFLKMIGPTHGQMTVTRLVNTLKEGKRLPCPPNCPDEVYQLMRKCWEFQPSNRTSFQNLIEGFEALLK

[5] = biological target: Tyrosine-protein kinase JAK2 (Homo sapiens, UniProt O60674); assay: Inhibition of GST-tagged JAK2 assessed as inhibition of biotinylated JAK3tide peptide phosphorylation after 60 mins by caliper mobility shift assay
Sequence of Tyrosine-protein kinase JAK2 (O60674 whole entry): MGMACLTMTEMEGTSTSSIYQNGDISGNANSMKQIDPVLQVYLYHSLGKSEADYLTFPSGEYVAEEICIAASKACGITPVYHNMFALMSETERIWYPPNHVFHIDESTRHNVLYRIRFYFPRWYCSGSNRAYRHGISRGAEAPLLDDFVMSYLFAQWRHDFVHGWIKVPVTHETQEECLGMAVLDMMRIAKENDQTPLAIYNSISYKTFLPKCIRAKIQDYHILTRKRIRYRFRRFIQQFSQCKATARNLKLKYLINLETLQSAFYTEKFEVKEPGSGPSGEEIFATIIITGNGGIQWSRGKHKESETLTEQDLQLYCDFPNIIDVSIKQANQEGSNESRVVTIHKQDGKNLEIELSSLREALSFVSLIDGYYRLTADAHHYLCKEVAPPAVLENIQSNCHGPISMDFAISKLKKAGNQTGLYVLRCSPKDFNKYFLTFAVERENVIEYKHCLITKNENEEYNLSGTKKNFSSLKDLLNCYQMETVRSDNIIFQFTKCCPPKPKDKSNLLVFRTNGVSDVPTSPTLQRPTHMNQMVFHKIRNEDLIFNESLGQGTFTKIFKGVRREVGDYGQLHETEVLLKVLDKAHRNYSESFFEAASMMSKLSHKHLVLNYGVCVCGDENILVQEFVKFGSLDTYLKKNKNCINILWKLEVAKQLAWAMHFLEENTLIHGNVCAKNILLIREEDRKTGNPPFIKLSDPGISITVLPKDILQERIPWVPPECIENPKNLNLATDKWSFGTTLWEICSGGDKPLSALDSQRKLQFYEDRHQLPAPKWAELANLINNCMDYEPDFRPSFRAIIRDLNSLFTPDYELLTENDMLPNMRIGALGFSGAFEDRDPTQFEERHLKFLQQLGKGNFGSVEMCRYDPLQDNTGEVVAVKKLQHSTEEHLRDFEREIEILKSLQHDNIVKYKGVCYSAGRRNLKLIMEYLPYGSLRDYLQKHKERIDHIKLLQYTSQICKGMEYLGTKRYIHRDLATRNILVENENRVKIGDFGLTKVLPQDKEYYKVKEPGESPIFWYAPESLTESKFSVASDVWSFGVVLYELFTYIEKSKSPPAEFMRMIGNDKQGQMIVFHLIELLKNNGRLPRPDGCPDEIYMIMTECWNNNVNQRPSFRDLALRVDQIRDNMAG

[6] = Terminal half life in rat at 0.5 ml/kg, iv; assay type: ADME, organism-based; settings: in vivo
Rattus norvegicus [7] = assay: Dose normalized AUC in rat at 1 mg/kg, po; assay type: ADME, organism-based; parameters: dose 1 mg/kg, route oral; settings: in vivo
[8] = Cmax in rat at 2.5 ml/kg, po; assay type: ADME, organism-based; parameters: dose 2.5 ml/kg, route oral; settings: in vivo
[9] = Clearance in rat at 0.5 ml/kg, iv; assay type: ADME, organism-based; settings: in vivo
[10] = Tmax in rat at 2.5 ml/kg, po; assay type: ADME, organism-based; settings: in vivo
[11] = Oral bioavailability in rat at 2.5 ml/kg; assay type: ADME, organism-based; settings: in vivo
[12] = Volume of distribution at steady state in rat at 0.5 ml/kg, iv; assay type: ADME, organism-based; settings: in vivo, read-out: Vdss
Rattus norvegicus [13] = assay: Dose normalized AUC in rat at 1 mg/kg, iv; assay type: ADME, organism-based; parameters: dose 1 mg/kg, route intravenous; settings: in vivo

Sequence of Non-receptor tyrosine-protein kinase TYK2 (P29597 whole entry): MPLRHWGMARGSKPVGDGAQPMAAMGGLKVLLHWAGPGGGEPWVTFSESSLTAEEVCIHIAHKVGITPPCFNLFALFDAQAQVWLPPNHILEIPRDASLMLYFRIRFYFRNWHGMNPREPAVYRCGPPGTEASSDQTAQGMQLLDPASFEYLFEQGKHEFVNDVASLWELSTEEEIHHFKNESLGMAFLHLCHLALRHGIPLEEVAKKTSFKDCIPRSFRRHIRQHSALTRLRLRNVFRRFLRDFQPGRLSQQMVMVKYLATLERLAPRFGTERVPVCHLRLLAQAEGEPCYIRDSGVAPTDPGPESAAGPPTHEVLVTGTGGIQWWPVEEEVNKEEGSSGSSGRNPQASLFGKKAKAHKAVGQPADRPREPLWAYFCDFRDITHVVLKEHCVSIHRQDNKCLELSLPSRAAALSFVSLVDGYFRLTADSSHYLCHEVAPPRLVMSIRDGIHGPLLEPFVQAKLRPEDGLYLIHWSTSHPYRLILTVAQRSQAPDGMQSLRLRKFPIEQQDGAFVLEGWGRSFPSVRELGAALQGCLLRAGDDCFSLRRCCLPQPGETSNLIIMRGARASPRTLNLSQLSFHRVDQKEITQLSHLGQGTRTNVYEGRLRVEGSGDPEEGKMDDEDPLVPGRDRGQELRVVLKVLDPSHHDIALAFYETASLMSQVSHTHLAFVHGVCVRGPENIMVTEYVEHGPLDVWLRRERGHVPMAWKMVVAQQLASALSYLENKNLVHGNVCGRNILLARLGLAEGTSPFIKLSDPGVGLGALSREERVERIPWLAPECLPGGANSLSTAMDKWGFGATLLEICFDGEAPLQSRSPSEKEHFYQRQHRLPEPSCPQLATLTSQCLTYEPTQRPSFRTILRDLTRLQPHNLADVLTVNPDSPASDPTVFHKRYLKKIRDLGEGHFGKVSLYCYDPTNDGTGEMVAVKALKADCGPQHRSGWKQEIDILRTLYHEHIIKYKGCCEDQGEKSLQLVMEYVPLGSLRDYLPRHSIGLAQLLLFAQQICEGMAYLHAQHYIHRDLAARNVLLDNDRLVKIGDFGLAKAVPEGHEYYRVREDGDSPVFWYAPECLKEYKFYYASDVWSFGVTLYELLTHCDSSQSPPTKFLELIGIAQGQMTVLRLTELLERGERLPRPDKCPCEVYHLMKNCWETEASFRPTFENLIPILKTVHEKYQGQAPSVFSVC

Structure (SMILES): Cc1cc(Nc2nc3cccc(-c4cc(F)c(CN5CCOCC5)c(F)c4)c3o2)ccc1C(=O)NCCCN(C)C
- IC50 [1]: 97 nM
- GI50 [2]: 410 nM
- IC50 [3]: 220 nM
- IC50 [4]: 35 nM
- IC50 [5]: 5 nM

Structure (SMILES): CN(C)C(=O)c1ccc(Nc2nc3cccc(-c4ccc(C(=O)N5CCOCC5)cc4)c3o2)cc1
- IC50 [1]: 730 nM
- IC50 [3]: 620 nM
- IC50 [4]: 180 nM
- IC50 [5]: 39 nM

Structure (SMILES): COc1cc(Nc2nc3cccc(-c4ccccc4)c3o2)cc(OC)c1OC
- IC50 [1]: 3400 nM
- IC50 [3]: > 10000 nM
- IC50 [4]: 710 nM

Structure (SMILES): COc1cc(Nc2nc3cccc(-c4ccc(C(=O)N5CCOCC5)c(F)c4)c3o2)cc(OC)c1OC
- IC50 [1]: 63 nM
- GI50 [2]: 150 nM
- IC50 [4]: 22 nM
- IC50 [5]: < 3 nM

Structure (SMILES): CNC(=O)c1ccc(Nc2nc3cccc(-c4cc(F)c(CN5CCOCC5)c(F)c4)c3o2)cc1C
- half-life [6]: 192 min
- AUC (Rattus norvegicus [7]): 2435 nmol·h/L
- IC50 [1]: 120 nM
- GI50 [2]: 260 nM
- Cmax [8]: 242 nM
- clearance [9]: 15 mL/min/kg
- IC50 [3]: 190 nM
- Tmax [10]: 3.5 h
- IC50 [4]: 48 nM
- bioavailability [11]: 102%
- Vd [12]: 2.3 L/kg
- IC50 [5]: 5 nM
- AUC (Rattus norvegicus [13]): 2391 nmol·h/L

Structure (SMILES): Cc1cc(Nc2nc3cccc(-c4ccc(C(=O)N5CCOCC5)cc4)c3o2)ccc1C(=O)N(C)C
- GI50 [2]: 490 nM
- IC50 [4]: 130 nM
- IC50 [5]: 8 nM

Structure (SMILES): COc1cc(Nc2nc3cccc(-c4cccc(NS(C)(=O)=O)c4)c3o2)cc(OC)c1OC
- IC50 [1]: 3600 nM
- IC50 [3]: 2000 nM
- IC50 [4]: 680 nM
- IC50 [5]: 150 nM

Structure (SMILES): COc1cc(Nc2nc3cccc(-c4ccc(CN5CCOCC5)cc4)c3o2)cc(OC)c1OC
- IC50 [1]: 310 nM
- GI50 [2]: 420 nM
- IC50 [3]: 300 nM
- IC50 [4]: 82 nM

Structure (SMILES): COc1cc(Nc2nc3cccc(-c4cccc(Cl)c4)c3o2)cc(OC)c1OC
- IC50 [1]: > 10000 nM
- IC50 [3]: > 10000 nM
- IC50 [4]: 5300 nM
- IC50 [5]: 440 nM

Structure (SMILES): COc1cc(Nc2nc3cccc(-c4ccc(NS(C)(=O)=O)cc4)c3o2)cc(OC)c1OC
- IC50 [1]: 150 nM
- GI50 [2]: 130 nM
- IC50 [3]: 130 nM
- IC50 [4]: 47 nM
- IC50 [5]: 5 nM

Structure (SMILES): COc1cc(Nc2nc3cccc(-c4ccccn4)c3o2)cc(OC)c1OC
- IC50 [1]: 640 nM
- IC50 [3]: 450 nM
- IC50 [4]: 760 nM
- IC50 [5]: 110 nM

Structure (SMILES): Cc1cc(Nc2nc3cccc(-c4cc(F)c(CN5CCOCC5)c(F)c4)c3o2)ccc1C(=O)N(C)C
- IC50 [1]: 200 nM
- GI50 [2]: 200 nM
- IC50 [3]: 160 nM
- IC50 [4]: 140 nM
- IC50 [5]: 5 nM

Structure (SMILES): COc1cc(Nc2nc3cccc(-c4ccc(C(=O)N5CCOCC5)cc4)c3o2)cc(OC)c1OC
- IC50 [1]: 110 nM
- GI50 [2]: 160 nM
- IC50 [3]: 400 nM
- IC50 [4]: 27.5 nM
- IC50 [5]: 8 nM

Structure (SMILES): COc1ccc(-c2cccc3nc(Nc4cc(OC)c(OC)c(OC)c4)oc23)cc1
- IC50 [1]: > 10000 nM
- IC50 [3]: > 10000 nM
- IC50 [4]: 8900 nM

Structure (SMILES): Cc1cc(-c2cccc3nc(Nc4ccc(N5CCN(C)CC5)cc4)oc23)ccc1C(=O)N1CCOCC1
- IC50 [1]: 300 nM
- GI50 [2]: 200 nM
- IC50 [3]: 170 nM
- IC50 [4]: 67 nM
- IC50 [5]: 8 nM

Structure (SMILES): COc1cc(Nc2nc3cccc(-c4ccc5ncccc5c4)c3o2)cc(OC)c1OC
- IC50 [1]: 1400 nM
- GI50 [2]: 500 nM
- IC50 [3]: 670 nM
- IC50 [4]: 210 nM
- IC50 [5]: 8 nM

From ChEMBL document CHEMBL1154949, “2-Amino-aryl-7-aryl-benzoxazoles as potent, selective and orally available JAK2 inhibitors” (Bioorg Med Chem Lett, 2010)
